The supplement of paper PMC10331698
± gives the standard deviation of the averaged measurements.

Experiments:
Experiment in all cases: level (log10 ratio to DMSO vehicle control); higher = higher biomarker level / cell amount than vehicle control
Conditions in all cases: in DMSO
[1] = compound: CC(C)(C)C(=O)CC(=O)C(F)(F)C(F)(F)C(F)(F)F [(Heptafluorobutanoyl)pivaloylmethane]
Method: (§1)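 BioMAP Diversity Plus panel of 12 human primary cell co-culture systems (3C, 4H, LPS, SAg, BT, BF4T, BE3C, CASM3C, HDF3CGF, KF3CT, MyoF, Mphg). Compounds were added 1 h before stimulation and left for 24 h (MyoF 48 h; BT 72 h for soluble read-outs or 6 d for IgG). Biomarkers were read by ELISA, cytotoxicity by SRB, PBMC viability and proliferation by Alamar Blue. Each well value was divided by the mean of 8 DMSO control wells on the same plate and log10 transformed; duplicate blinded samples were tested at 4 concentrations.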

[2] = compound: O=C(O)CCC(F)(F)C(F)(F)C(F)(F)C(F)(F)C(F)(F)F [2H,2H,3H,3H-Perfluorooctanoic acid]
Method: as §1

[3] = compound: CNS(=O)(=O)C(F)(F)C(F)(F)C(F)(F)C(F)(F)C(F)(F)C(F)(F)C(F)(F)C(F)(F)F [N-Methylperfluorooctanesulfonamide]
Method: as §1

1-(Perfluorohexyl)octane = compound: CCCCCCCCC(F)(F)C(F)(F)C(F)(F)C(F)(F)C(F)(F)C(F)(F)F [1-(Perfluorohexyl)octane]
Method: as §1

Hexafluoroglutaric acid = compound: O=C(O)C(F)(F)C(F)(F)C(F)(F)C(=O)O [Hexafluoroglutaric acid]
Method: as §1

Perfluorooctanamidine = compound: N=C(N)C(F)(F)C(F)(F)C(F)(F)C(F)(F)C(F)(F)C(F)(F)C(F)(F)F [Perfluorooctanamidine]
Method: as §1

Perfluorooctanamide = compound: NC(=O)C(F)(F)C(F)(F)C(F)(F)C(F)(F)C(F)(F)C(F)(F)C(F)(F)F [Perfluorooctanamide]
Method: as §1

| Test System | level (log10) ([1]; 6700 nM) | level (log10) ([1]; 20000 nM) | level (log10) ([1]; 60000 nM) | level (log10) ([2]; 6700 nM) | level (log10) ([2]; 20000 nM) | level (log10) ([2]; 60000 nM) | level (log10) ([3]; 6700 nM) | level (log10) ([3]; 20000 nM) | level (log10) ([3]; 60000 nM) | level (log10) (1-(Perfluorohexyl)octane; 6700 nM) | level (log10) (1-(Perfluorohexyl)octane; 20000 nM) | level (log10) (Hexafluoroglutaric acid; 6700 nM) | level (log10) (Hexafluoroglutaric acid; 20000 nM) | level (log10) (Hexafluoroglutaric acid; 60000 nM) | level (log10) (Perfluorooctanamidine; 6700 nM) | level (log10) (Perfluorooctanamidine; 20000 nM) | level (log10) (Perfluorooctanamidine; 60000 nM) | level (log10) (Perfluorooctanamide; 6700 nM) | level (log10) (Perfluorooctanamide; 20000 nM) | level (log10) (Perfluorooctanamide; 60000 nM) |
| --- | --- | --- | --- | --- | --- | --- | --- | --- | --- | --- | --- | --- | --- | --- | --- | --- | --- | --- | --- | --- |
| BT:sIL-17F | -0.069 ± 0.082 | -0.0005 ± 0.036 | -0.119 ± 0.1 | -0.016 ± 0.058 | -0.0575 ± 0.059 | -0.01 ± 0.064 | 0.016 ± 0.18 | 0.066 ± 0.56 | -0.385 ± 0.26 | 0.083 ± 0.033 | 0.089 ± 0.0071 | 0.046 ± 0.071 | 0.0335 ± 0.05 | -0.004 ± 0.0085 | -0.0225 ± 0.071 | -0.209 ± 0.023 | -0.112 | 0.0205 ± 0.0064 | -0.0165 ± 0.035 | -0.0955 ± 0.1 |
| BT:sTNF-alpha | -0.075 ± 0.064 | -0.0605 ± 0.016 | 0.0315 ± 0.18 | -0.0085 ± 0.0035 | -0.0055 ± 0.074 | 0.005 ± 0.037 | -0.017 ± 0.055 | 0.0015 ± 0.022 | -0.0905 ± 0.29 | 0.0415 ± 0.028 | 0.126 ± 0.16 | 0.026 ± 0.13 | 0.0415 ± 0.039 | 0.116 ± 0.039 | 0.102 ± 0.099 | 0.0345 ± 0.084 | 0.01 | -0.0175 ± 0.011 | 0.0215 ± 0.056 | -0.129 ± 0.095 |
| LPS:CCL2/MCP-1 | -0.01 ± 0.0014 | -0.0055 ± 0.018 | 0.001 ± 0.038 | 0.017 ± 0.011 | 0.018 ± 0.044 | 0.0255 ± 0.043 | -0.0135 ± 0.0035 | 0.0125 ± 0.0021 | 0.006 ± 0.021 | 0.006 ± 0.021 | 0.017 ± 0.013 | -0.0135 ± 0.026 | -0.012 ± 0.011 | -0.004 ± 0.013 | -0.0005 ± 0.021 | -0.003 ± 0.0028 | -0.023 | -0.0295 ± 0.015 | 0.001 ± 0.0099 | -0.0765 ± 0.012 |
| LPS:CD40 | 0.0275 ± 0.066 | 0.028 ± 0.068 | 0.0515 ± 0.0021 | -0.005 ± 0.047 | -0.014 ± 0.02 | -0.0635 ± 0.026 | -0.0545 ± 0.083 | -0.0265 ± 0.023 | -0.0375 ± 0.0078 | -0.0355 ± 0.079 | -0.0205 ± 0.049 | 0 ± 0.0028 | -0.0035 ± 0.035 | 0.0085 ± 0.046 | -0.0145 ± 0.04 | -0.0525 ± 0.021 | -0.148 | -0.034 ± 0.021 | -0.015 ± 0.0057 | -0.0265 ± 0.028 |
| LPS:CD62E/E-Selectin | -0.0025 ± 0.005 | -0.0145 ± 0.021 | 0.004 ± 0.0042 | 0.0405 ± 0.029 | 0.022 ± 0.028 | 0.027 ± 0.021 | -0.024 ± 0.011 | 0.01 ± 0.02 | 0.03 ± 0.018 | -0.005 ± 0.031 | 0.0115 ± 0.029 | -0.003 ± 0.035 | 0.0045 ± 0.03 | 0.004 ± 0.033 | 0.0135 ± 0.00071 | -0.009 ± 0.013 | 0.019 | -0.002 ± 0.014 | -0.001 ± 0.011 | 0.0205 ± 0.0078 |
| LPS:CD69 | 0.0025 ± 0.026 | 0.007 | 0.063 ± 0.018 | -0.0475 ± 0.084 | -0.076 ± 0.052 | -0.135 ± 0.051 | -0.068 ± 0.016 | -0.0725 ± 0.0092 | -0.0725 ± 0.0035 | -0.012 ± 0.061 | 0.007 ± 0.038 | -0.003 ± 0.011 | -0.014 ± 0.0099 | 0.0075 ± 0.0021 | -0.025 ± 0.045 | -0.0395 ± 0.04 | -0.132 | -0.0115 ± 0.086 | 0.0295 ± 0.036 | 0.0385 ± 0.029 |
| LPS:CD106/VCAM-1 | -0.0315 ± 0.047 | -0.042 ± 0.017 | -0.021 ± 0.034 | 0.006 ± 0.023 | 0.018 ± 0.033 | -0.016 ± 0.082 | -0.013 ± 0.038 | 0.0295 ± 0.018 | 0.03 ± 0.027 | 0.001 ± 0.0057 | 0.017 ± 0.0085 | -0.006 ± 0.016 | -0.015 ± 0.024 | -0.005 ± 0.0071 | -0.017 ± 0.014 | -0.0365 ± 0.026 | -0.091 | -0.0025 ± 0.012 | 0.006 ± 0.0028 | 0.0245 ± 0.00071 |
